Like-named read-outs stand apart in the source and are kept apart here. Residues, ends and D or L forms follow the SMILES beside them.
Legend:
LNCaP cells = assay: LNCaP cell proliferation in phenol red-free and steroid-free medium; format: cell-based, human; details: for LNCaP cell proliferation: steroid-free medium, DHT 10 nM, ANG 0.1 μg/ml, or a mixture of the two
Description: (A) HUVE and LNCaP cells were cultured at the density indicated, and incubated with 0.1 μg/ml ANG for 2 h. Nuclear ANG were detected by indirect immunofluorescence with 26-2F and Alex 488 labeled 2nd antibody. (B) LNCaP cells were culture in phenol red-free and charcoal/dextran-stripped (steroid-free) FBS for 2 day and stimulated with DHT (10 nM), ANG (0.1 μg/ml), or a mixture of the two for the time indicated. (C) Dose dependence. ANG was added to the cells and cultured for 4 days. Cell numbers were determined with a Coulter counter.
ANG plays a dual role in prostate cancer progression. It not only mediates tumor angiogenesis but also directly stimulates cancer cell proliferation.

ANG protein = ANG protein (Homo sapiens, UniProt P03950); assay: binding of Plexin B2 peptides to ANG by ELISA and equilibrium dialysis
[1] = system: ANG receptor expressing LNCaP cells; assay: radio receptor assay, binding of 125I-ANG to LNCaP cells; set-up: species or system human; details: 4° C., Scatchard analysis
Description: (A) Subconfluent LNCaP cells were incubated with ^125I-ANG at 4° C. for 30 min and bound ANG was determined by a gamma counter. (B) Scatchard plot of the results produced in experiment described in (A).
The thermodynamics of ANG binding to LNCaP cells was determined by a standard radio receptor assay. ANG was labeled with iodine-125 and incubated with ANG receptor expressing LNCaP cells at 4° C.

[2] = system: Plexin B2 transfectants of COS-7 cells; assay: AKT phosphorylation in Plexin B2 transfectants of COS-7 cells (Western); format: cell-based, monkey; details: not in vector control, ANG 2 h
Description: Vector (A-C) and Plexin B2 (D-F) transfected COS-7 cells were incubated with 1 μg/ml ANG for 2 h. ANG was detected by immunofluorescence (A and D). Nuclei were stained by DAPI (B and E). The merged images were shown in C and F. (G) Vector and Plexin B2 transfectants were incubated with ANG at the concentration indicated for 2 h. Cells were lysed, cell lysates (60 μg protein) were subjected for SDS-PAGE and Western analysis for phospho-AKT and total AKT with respective antibodies.
The phosphorylation status of AKT in the Plexin B2 transfectants of COS-7 cells was examined.

[3] = system: Plexin B2 transfectants of COS-7 cells; assay: nuclear translocation of ANG in Plexin B2-transfected COS-7 cells; format: cell-based, monkey; details: neomycin 10 min, then 1 μg/ml ANG for 2 h
Description: The Plexin B2 transfectants were treated with neomycin at the concentration indicated for 10 min and then incubated with 1 μg/ml ANG for 2 h. ANG was detected by immunofluorescence (top panels). Nuclei were stained by DAPI (middle panels). The merged images were shown in bottom panels.
The effect of neomycin on Plexin B2 transfectants of COS-7 cells was examined. […] Therefore, transfection of human Plexin B2 cDNA converted COS-7 cells into ANG responsive cells. In term of nuclear translocation of ANG, which is essential for the biological activity of ANG, Plexin B2 transfectants of COS-7 cells act in a similar fashion as do LNCaP cells and sparsely cultured HUVE cells, the two known ANG responsive cell lines.

[4] = system: ANG receptor expressing LNCaP cells; details: background statement, no data shown; cited from earlier work

Sequence of ANG protein (P03950 25-147): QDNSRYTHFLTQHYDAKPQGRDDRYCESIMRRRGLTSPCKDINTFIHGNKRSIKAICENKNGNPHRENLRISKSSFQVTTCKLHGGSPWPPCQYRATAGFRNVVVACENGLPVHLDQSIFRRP

## C[C@]12CCC(=O)C[C@@H]1CC[C@@H]1[C@@H]2CC[C@]2(C)[C@@H](O)CC[C@@H]12 [DHT, Dihydrotestosterone, reference compound]
LNCaP cells
  LNCaP cell proliferation: stimulated LNCaP cell proliferation

## CC[C@H](C)[C@H](NC(=O)[C@H](CCC(=O)O)NC(=O)[C@@H](NC(=O)[C@H](CC(C)C)NC(=O)[C@@H](NC(=O)[C@H](CO)NC(=O)[C@H](CC(=O)O)NC(=O)[C@H](Cc1ccc(O)cc1)NC(=O)[C@H](CCC(=O)O)NC(=O)[C@H](CO)NC(=O)[C@H](CO)NC(=O)[C@@H](NC(=O)CN)[C@@H](C)O)[C@@H](C)CC)C(C)C)C(=O)N[C@@H](CC(N)=O)C(=O)N[C@@H](CCCCN)C(=O)N[C@@H](CCCNC(=N)N)C(=O)N[C@H](C(=O)N[C@@H](CCCCN)C(=O)O)C(C)C [SEQ ID NO: 1, GTSSEYDSILVEINKRVK] (H-GTSSEYDSILVEINKRVK-OH; N-terminus and C-terminus assumed)
ANG protein
  binding to ANG: able to bind to ANG

## ANG: small, secreted protein Angiogenin, a potent inducer of angiogenesis; human ANG is SEQ ID NO: 5
[1]; read-out: apparent Kd, first ANG binding site
  Kd: 0.45 nM
[1]; read-out: apparent Kd, second ANG binding site
  Kd: 170 nM
LNCaP cells; cultured for 4 days, cell numbers by Coulter counter
  LNCaP cell proliferation, dose dependence: stimulated LNCaP cell proliferation in a dose-dependent manner
LNCaP cells
  LNCaP cell proliferation: stimulated LNCaP cell proliferation in the absence of androgen
[2]
  AKT phosphorylation: induced AKT phosphorylation

## LDKVHAKMEANRNAC (listed as Homo sapiens) [SEQ ID NO: 2]
ANG protein
  binding to ANG: able to bind to ANG

## RDGLRGTAVLQRGGLNL (listed as Homo sapiens) [SEQ ID NO: 3]
ANG protein
  binding to ANG: able to bind to ANG

## neomycin
[3]
  nuclear translocation of ANG: inhibits nuclear translocation of ANG in the Plexin B2 transfectants of COS-7 cells in a dose-dependent manner

B1: RNase A: protein with 35% amino acid identity to ANG, used on Sepharose column to remove non-specific proteins (protein, UniProt P61823 27-150, looked up)
Ribonuclease pancreatic: KETAAAKFERQHMDSSTSAASSSNYCNQMMKSRNLTKDRCKPVNTFVHESLADVQAVCSQKNVACKNGQTNCYQSYSTMSITDCRETGSSKYPNCAYKTTQANKHIIVACEGNPYVPVHFDASV
[4]
  binding to the LNCaP cell surface: does not bind to the LNCaP cell surface

— patent publication US9353188B2, “Modulators of Plexin B2 activity” (President and Fellows of Harvard College, priority 2011, dated 2016)
